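Assay format: 96-well plates, 48-hour exposure. Here, GI50 denotes the concentration required for 50% inhibition of growth. TGI: total growth inhibition.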
Tests used:
Assay in all cases: growth of human tumour cells (NCI), 48 h
RPMI-8226 leukemia = test system: RPMI-8226 leukemia
ACHN renal = test system: ACHN renal
COLO 205 colon = test system: COLO 205 colon
HCC-2998 colon = test system: HCC-2998 colon
HOP-62 NSCLC = test system: HOP-62 NSCLC
A549 NSCLC = test system: A549 NSCLC
MALME-3M melanoma = test system: MALME-3M melanoma
OVCAR-8 ovarian = test system: OVCAR-8 ovarian
NCI-H522 lung = test system: NCI-H522 lung
HL-60(TB) leukemia = test system: HL-60(TB) leukemia

Structure (SMILES)	TGI (RPMI-8226 leukemia) [µM]	TGI (ACHN renal) [µM]	TGI (COLO 205 colon) [µM]	TGI (HCC-2998 colon) [µM]	TGI (HOP-62 NSCLC) [µM]	TGI (A549 NSCLC) [µM]	TGI (MALME-3M melanoma) [µM]	TGI (OVCAR-8 ovarian) [µM]	TGI (NCI-H522 lung) [µM]	TGI (HL-60(TB) leukemia) [µM]	GI50 (RPMI-8226 leukemia) [µM]	GI50 (ACHN renal) [µM]	GI50 (COLO 205 colon) [µM]	GI50 (HCC-2998 colon) [µM]	GI50 (HOP-62 NSCLC) [µM]	GI50 (A549 NSCLC) [µM]	GI50 (MALME-3M melanoma) [µM]	GI50 (OVCAR-8 ovarian) [µM]	GI50 (NCI-H522 lung) [µM]	GI50 (HL-60(TB) leukemia) [µM]
CC(=O)c1cccc(NCn2nnc3ccccc32)c1	> 100	> 100	> 100	> 100	> 100	> 100	> 100	> 100	> 100	> 100										
CCO[C@@H]1C2C=CC(C2)[C@H]1[N+](=O)[O-] (stereo not given in full)	> 100	> 100	> 100	> 100	> 100	> 100	> 100	> 100	> 100	> 100										
Cc1ncc([N+](=O)[O-])n1CCNC(=O)CCCn1cnc([N+](=O)[O-])n1	> 100	> 100	> 100	> 100	> 100	> 100	> 100	> 100	> 100	> 100										
COC(=O)C(=O)C(C(=O)C=C(C)C)C(=O)C(=O)Nc1cccc(C(C)=O)c1 (stereo not given)	> 100	> 100	> 100	> 100	> 100	> 100	> 100	> 100	> 100	> 100										
O=c1oc2ccc(Cl)cc2c(=O)n1-c1ccc(I)cc1F	0.436	7.51	19.7	8.51	3.75	> 100	0.813	15	1.83	1.36	0.0907	0.315	7	2.66	0.855	1.01	0.158	0.323	0.111	0.286
COc1ccc(COCC(Cn2ccnc2)OCc2ccc(C(=O)O)cc2)cc1 (stereo not given)	> 100	> 100	> 100	> 100	> 100	> 100	> 100	> 100	> 100	> 100										
O=c1[nH]cnc2c(C3OC(CO)C(O)C3O)scc12 (stereo not given)	> 100	> 100	> 100	> 100	> 100	> 100	> 100	> 100	> 100	> 100	26.9	49.1	> 100	32.3	46.9	> 100	13.8	54.8	> 100	19.6
COc1ccccc1-c1c(C)nn2c(NCc3ccccn3)cc(C)nc12	> 50	> 50	> 50	> 50	> 50	> 50	> 50	> 50	> 50	> 50	13.6	3.51	1.92	> 50	34.7	26.7	> 17.1	23.9	21.3	20.4

Source: PubChem BioAssay (NCI)
